The values below come from ChEMBL document CHEMBL2176994, “Radiosynthesis of PET radiotracer as a prodrug for imaging group II metabotropic glutamate receptors in vivo” (Bioorg Med Chem Lett, 2012).

The target of data set [1] is T1, Metabotropic glutamate receptor 2 (Homo sapiens, UniProt Q14416). In words: Agonist activity at mGLUR2 expressed in CHO cells. In kind it is functional, cell-based.
For data set [2], the target named is T2, Metabotropic glutamate receptor 3 (Homo sapiens, UniProt Q14832). Put plainly: Agonist activity at mGLUR3 expressed in CHO cells. The format is functional, cell-based.
T2 sequence (Q14832 whole entry): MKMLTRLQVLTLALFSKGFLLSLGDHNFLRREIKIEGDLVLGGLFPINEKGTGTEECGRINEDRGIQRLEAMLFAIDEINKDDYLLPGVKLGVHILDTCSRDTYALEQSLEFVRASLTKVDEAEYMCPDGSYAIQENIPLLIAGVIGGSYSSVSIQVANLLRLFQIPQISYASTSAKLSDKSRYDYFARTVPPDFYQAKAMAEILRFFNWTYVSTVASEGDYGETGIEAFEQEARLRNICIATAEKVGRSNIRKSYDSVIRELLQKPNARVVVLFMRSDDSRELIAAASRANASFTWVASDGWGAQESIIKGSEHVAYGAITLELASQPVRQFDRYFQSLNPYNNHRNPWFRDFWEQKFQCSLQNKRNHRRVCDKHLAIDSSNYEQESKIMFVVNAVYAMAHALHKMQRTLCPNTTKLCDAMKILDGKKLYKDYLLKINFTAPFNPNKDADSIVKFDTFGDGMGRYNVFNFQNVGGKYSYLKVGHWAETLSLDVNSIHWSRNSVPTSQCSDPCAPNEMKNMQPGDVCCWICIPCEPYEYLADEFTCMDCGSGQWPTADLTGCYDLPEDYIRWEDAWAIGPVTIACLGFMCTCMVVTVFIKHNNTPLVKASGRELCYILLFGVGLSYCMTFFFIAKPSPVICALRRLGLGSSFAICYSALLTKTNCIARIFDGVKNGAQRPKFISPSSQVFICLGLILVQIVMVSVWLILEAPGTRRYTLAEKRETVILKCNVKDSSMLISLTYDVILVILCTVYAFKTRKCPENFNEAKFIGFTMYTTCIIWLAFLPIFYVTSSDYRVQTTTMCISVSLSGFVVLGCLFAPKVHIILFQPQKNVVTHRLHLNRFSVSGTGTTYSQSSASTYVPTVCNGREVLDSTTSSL
The test system of data set [3] is Brain. Put plainly: Drug uptake in Sprague-Dawley rat brain at […], iv from 20 to 25 mins by microPET analysis. The format is ADME, organism-based. The conditions noted are these: in vivo.
Data set [4] has as its target T1, Metabotropic glutamate receptor 2. Put plainly: Binding affinity to mGLUR2.
Data set [5] addresses T2, Metabotropic glutamate receptor 3. Put plainly: Binding affinity to mGLUR3.
Data set [6] shares this target. In words: Antagonist activity at mGLUR3 expressed in CHO cells assessed as inhibition of glutamate-induced inhibition of forskolin-stimulated cAMP production. The format is functional, cell-based. Background: Cyclic AMP is a second messenger, typically raised through Gs and lowered through Gi signalling.
In data set [7] the target is T1, Metabotropic glutamate receptor 2. In words: Antagonist activity at mGLUR2 expressed in CHO cells assessed as inhibition of glutamate-induced inhibition of forskolin-stimulated cAMP production.
Data set [8] has as its system Hippocampus. Put plainly: Drug uptake in Sprague-Dawley rat hippocampus at […], iv from 1 to 40 mins by microPET analysis. The conditions noted are these: in vivo. The format is ADME, organism-based.
Another data set has as its system Cortex. Put plainly: Drug uptake in Sprague-Dawley rat cortex at […], iv from 1 to 40 mins by microPET analysis. In kind it is ADME, organism-based. Conditions: in vivo; call rule not given here.
Data set [9] has as its system Brain. Put plainly: Drug uptake in Sprague-Dawley rat brain at […], iv from 1 to 40 mins by microPET analysis. The format is ADME, organism-based. Conditions: in vivo.
A short description of data set [10]: Drug uptake in Sprague-Dawley rat motor cortex at […], iv from 20 to 40 mins by microPET analysis in presence of LY341495. In kind it is ADME, organism-based. The conditions noted are these: in vivo.
The subject of data set [11] is Striatum. In words: Drug uptake in Sprague-Dawley rat striatum at 0.4 uCi, iv from 20 to 40 mins by microPET analysis in presence of LY341495. In kind it is ADME, organism-based. The conditions noted are these: in vivo.
The test system of data set [12] is Brain. Put plainly: Drug uptake in Sprague-Dawley rat brain at […], iv from 20 to 40 mins by microPET analysis in presence of LY341495. The format is ADME, organism-based. The conditions noted are these: in vivo.
The next data set deals with Thalamus. In words: Drug uptake in Sprague-Dawley rat thalamus at 0.4 uCi, iv from 20 to 40 mins by microPET analysis in presence of LY341495. In kind it is ADME, organism-based. The conditions noted are these: in vivo.
Data set [13] concerns Striatum. In words: Drug uptake in Sprague-Dawley rat striatum at […], iv from 1 to 40 mins by microPET analysis. In kind it is ADME, organism-based. The conditions noted are these: in vivo.
The next data set has as its system Cerebellum. Put plainly: Drug uptake in Sprague-Dawley rat cerebellum at […], iv from 20 to 40 mins by microPET analysis in presence of LY341495. In kind it is ADME, organism-based. The conditions noted are these: in vivo.
Data set [14] has as its system Brain. Put plainly: Drug uptake in Sprague-Dawley rat brain at […], iv at 2 mins by microPET analysis. In kind it is ADME, organism-based. The conditions noted are these: in vivo.
Data set [15] in a line: Drug uptake in Sprague-Dawley rat cingulate cortex at […], iv from 20 to 40 mins by microPET analysis in presence of LY341495. In kind it is ADME, organism-based. Conditions: in vivo.
Data set [16] is described as follows: Drug uptake in Sprague-Dawley rat olfactory lobe at […], iv from 20 to 40 mins by microPET analysis in presence of LY341495. In kind it is ADME, organism-based. Conditions: in vivo.
Data set [17] has as its system Hippocampus. Put plainly: Drug uptake in Sprague-Dawley rat hippocampus at […], iv from 20 to 40 mins by microPET analysis in presence of LY341495. Conditions: in vivo. In kind it is ADME, organism-based.
Data set [18] deals with Metabotropic glutamate receptor 3 (Rattus norvegicus, UniProt P31422). In words: Agonist activity at mGLUR3 in rat cerebral cortex assessed as inhibition of forskolin-stimulated cAMP production. In kind it is functional, tissue-based.
Sequence of Metabotropic glutamate receptor 3 (Rattus norvegicus, UniProt P31422) (P31422 whole entry): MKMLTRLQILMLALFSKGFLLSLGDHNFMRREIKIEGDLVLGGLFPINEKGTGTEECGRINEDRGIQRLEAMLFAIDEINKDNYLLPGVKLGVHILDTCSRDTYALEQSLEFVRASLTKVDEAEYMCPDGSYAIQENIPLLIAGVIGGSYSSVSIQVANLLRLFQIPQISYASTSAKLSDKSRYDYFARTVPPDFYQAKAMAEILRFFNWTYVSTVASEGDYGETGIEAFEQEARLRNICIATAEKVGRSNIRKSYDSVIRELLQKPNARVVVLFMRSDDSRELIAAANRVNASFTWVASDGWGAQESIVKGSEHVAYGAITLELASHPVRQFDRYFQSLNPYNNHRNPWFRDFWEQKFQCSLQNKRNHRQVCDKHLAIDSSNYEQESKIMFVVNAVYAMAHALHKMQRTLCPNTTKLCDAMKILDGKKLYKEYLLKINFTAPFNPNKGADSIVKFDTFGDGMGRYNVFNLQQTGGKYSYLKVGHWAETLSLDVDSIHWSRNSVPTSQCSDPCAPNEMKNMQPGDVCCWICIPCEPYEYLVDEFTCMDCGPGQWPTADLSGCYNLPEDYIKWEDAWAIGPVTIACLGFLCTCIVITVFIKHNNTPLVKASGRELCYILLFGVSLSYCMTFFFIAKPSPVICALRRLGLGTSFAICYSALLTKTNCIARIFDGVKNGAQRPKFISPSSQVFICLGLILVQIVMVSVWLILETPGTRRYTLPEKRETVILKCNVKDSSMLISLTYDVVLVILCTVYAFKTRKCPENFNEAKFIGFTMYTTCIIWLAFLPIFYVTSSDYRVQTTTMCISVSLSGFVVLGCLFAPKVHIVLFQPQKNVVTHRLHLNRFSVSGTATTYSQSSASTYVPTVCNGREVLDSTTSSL

Molecules are shown by their SMILES.

T1 sequence (Q14416 whole entry): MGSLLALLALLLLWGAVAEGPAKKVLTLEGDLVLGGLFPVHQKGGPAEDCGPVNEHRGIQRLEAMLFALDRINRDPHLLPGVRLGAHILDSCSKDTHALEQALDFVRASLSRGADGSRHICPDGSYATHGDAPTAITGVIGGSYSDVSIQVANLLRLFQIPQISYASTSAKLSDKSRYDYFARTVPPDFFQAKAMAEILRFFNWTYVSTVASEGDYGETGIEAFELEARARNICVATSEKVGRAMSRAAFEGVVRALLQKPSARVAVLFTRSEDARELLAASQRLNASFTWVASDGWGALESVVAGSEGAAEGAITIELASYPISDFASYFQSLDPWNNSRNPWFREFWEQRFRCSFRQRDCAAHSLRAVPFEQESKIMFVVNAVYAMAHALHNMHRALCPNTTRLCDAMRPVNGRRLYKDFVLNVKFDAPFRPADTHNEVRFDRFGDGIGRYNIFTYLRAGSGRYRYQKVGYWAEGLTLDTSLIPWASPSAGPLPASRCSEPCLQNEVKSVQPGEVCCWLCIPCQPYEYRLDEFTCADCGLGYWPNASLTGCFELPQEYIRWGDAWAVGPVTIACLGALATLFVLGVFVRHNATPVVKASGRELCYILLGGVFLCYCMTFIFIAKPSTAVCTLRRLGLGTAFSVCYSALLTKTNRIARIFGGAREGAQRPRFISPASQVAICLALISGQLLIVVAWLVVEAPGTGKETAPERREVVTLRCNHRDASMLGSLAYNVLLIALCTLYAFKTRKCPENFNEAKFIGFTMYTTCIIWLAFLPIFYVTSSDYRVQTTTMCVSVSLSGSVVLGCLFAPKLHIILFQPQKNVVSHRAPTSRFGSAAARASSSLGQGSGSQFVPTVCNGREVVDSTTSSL

For `N[C@@]1(C(=O)O)CC(=O)[C@@H]2[C@H]1[C@@]2(F)C(=O)O`, the EC50 in data set [1] came to 0.57 nM; in data set [2], 2.07 nM.
In the case of `[11CH3]Oc1cccc(CC[C@@](N)(C(=O)O)[C@H]2C[C@@H]2C(=O)O)c1`, the Drug uptake entry in the data set on Brain [3] is given as “Not Active”.
Consider `N[C@]1(C(=O)O)[C@H]2[C@@H](C[C@H]1OCc1ccc(Cl)c(Cl)c1)[C@]2(F)C(=O)O`, for which the Ki in [4] was determined as 2.2 nM; in data set [5], 4.5 nM. The IC50 in data set [6] turned out to be 24 nM; in data set [7] it was 20 nM.
For the compound `COC(=O)[C@H]1C[C@@H]1[C@@](N)(CCc1cccc(O[11CH3])c1)C(=O)OC`, the Drug uptake entry in the data set on Hippocampus [8] is listed as “Active”; in the data set with Cortex it was “Active”; in the data set on Brain [9] it was “Active”; in data set [10] it was “Not Active”; in the data set on Striatum [11], “Not Active”; with Brain [12], “Not Active”. Besides, the Drug uptake result was “Not Active” with Thalamus; “Active” in the data set on Striatum [13]; “Not Active” in the data set with Cerebellum; 2.5 %ID/cm3 in the data set with Brain [14]; “Not Active” in data set [15]; “Active” in data set [16]. Moreover, the Drug uptake entry with Hippocampus [17] was “Not Active”.
Turning to `N[C@@]1(C(=O)O)CC[C@H]2[C@H](C(=O)O)[C@H]21`, the EC50 in data set [18] was 38 nM.

What is called EC50 is the concentration at which the effect is half-maximal. Usually Ki stands for the dissociation constant of the complex between target and ligand, obtained from inhibition or displacement. The IC50 is the point on the concentration scale where inhibition reaches its midpoint.
